The conditions of data set [1]: 20° C., cited from earlier work.
The nature of data set [2]: compatibility of diquats with anionic surfactant in water. It is filed as physicochemical. Also noted: key: Cl. = Clear; Blu. = Bluish; Visc. = Viscous; Prec. = Precipitate; Turb. = Turbid. The settings on record: 1 wt % total surfactant in water, ambient temperature; for Compatibility observation, 100% of Diquat: 100% diquat; for Compatibility observation, 10% of Diquat / Compatibility observation, 20% of Diquat / Compatibility observation, 30% of Diquat / Compatibility observation, 40% of Diquat / Compatibility observation, 50% of Diquat / Compatibility observation, 60% of Diquat / Compatibility observation, 70% of Diquat / Compatibility observation, 80% of Diquat / Compatibility observation, 90% of Diquat: mixture with Sodium Laureth Sulfate; for Compatibility observation, 10% of Diquat: 10% diquat; for Compatibility observation, 20% of Diquat: 20% diquat; for Compatibility observation, 30% of Diquat: 30% diquat; for Compatibility observation, 40% of Diquat: 40% diquat; for Compatibility observation, 50% of Diquat: 50% diquat; for Compatibility observation, 60% of Diquat: 60% diquat; for Compatibility observation, 70% of Diquat: 70% diquat; for Compatibility observation, 80% of Diquat: 80% diquat; for Compatibility observation, 90% of Diquat: 90% diquat. The protocol:
To delimit the applicability of the Diquats the compatibility in different ratios with LES was tested in the temperature range between 0° C. and 90° C. […] With a hydrocarbon tail of up to 10 carbon atoms no precipitation was observed and with increasing chain length only a very narrow region of mixing ratios led to an insoluble deposit.

Data set [3] can be described thus: solubility temperatures of 1 wt % solutions. It is filed as physicochemical.
The subject of another data set is Black nightshade (SOLNI). Nature of the data set: adjuvant for glyphosate test on black nightshade. It is filed as in vivo. Conditions: where named, 0.25% w/v, 14 DAT; for Fresh Weight SOLNI: IPA-glyphosate 0.6 mM (20.3 g ae/ha at 200 L/ha); for Relative weight SOLNI (%): untreated plant = 100%, IPA-glyphosate 0.6 mM. As for the experimental part:
(§1) Wheat plants were used as a model for difficult to wet grasses and black nightshade was used as a model for a plant with an easy to wet but difficult to permeate leaf surface.
(§2) After emergence, the wheat seedlings were thinned to six plants per pot for the efficacy experiments. Black nightshade seedlings were thinned to one plant per pot. Black nightshade and wheat were treated at the four- and the three-leaf stage, respectively. The fresh weights of the plants were measured 14 days after treatment (14 DAT; black nightshade) or 21 days after treatment (21 DAT; wheat).
(§3) Demineralized water was used as the carrier. […] Based on previous work, these rates were 20.3 g ae/ha (equivalent to 0.6 mM) on black nightshade and 77.8 g ae/ha (equivalent to 2.3 mM at 200 L/ha) on wheat (ae=acid equivalent).
(§4) The fresh weight of the untreated plant was taken as a reference (100%). […] An industrial standard was also included in the test series.

For the next data set, the system named is winter wheat (cv. Ilias). Nature of the data set: adjuvant for glyphosate test on wheat. In kind it is in vivo. The settings on record: where named, 0.25% w/v, 21 DAT; for Fresh Weight WHEAT: IPA-glyphosate 2.3 mM (77.8 g ae/ha at 200 L/ha); for Relative weight WHEAT (%): untreated plant = 100%, IPA-glyphosate 2.3 mM. As for the experimental part:
as §1, §2, §3, §4

Like-named read-outs stand apart in the source and are kept apart here.

As for `CCNc1nc(Cl)nc(NC(C)C)n1` [Atrazine], the “log Kow” value in data set [1] (no pH given) is listed as 2.6.
Consider `CC(C)N1C(=O)c2ccccc2NS1(=O)=O` [Bentazone], for which the “log Kow” value in data set [1] (at pH 7) is −0.5.
As for `CCCCCCCC(=O)N(CCC[N+](C)(C)Cc1ccccc1)CCC[N+](C)(C)Cc1ccccc1.[Br-].[Br-]` [C8BnBr], in data set [2], the “Compatibility observation, 100% of Diquat” value is listed as “Cl”; the “Compatibility observation, 10% of Diquat” value is “Cl”; the “Compatibility observation, 20% of Diquat” value is listed as “Cl”; the “Compatibility observation, 30% of Diquat” value is “Cl”. In data set [2], the “Compatibility observation, 40% of Diquat” value is recorded as “Prec”; the “Compatibility observation, 50% of Diquat” value is “Prec”; the “Compatibility observation, 60% of Diquat” value is “Prec”; the “Compatibility observation, 70% of Diquat” value is on record as “Prec”. Also, in data set [2], the “Compatibility observation, 80% of Diquat” value is reported as “Prec” and the “Compatibility observation, 90% of Diquat” value was “Prec”.
As to `CCCCCCCC(=O)N(CCC[N+](C)(C)C)CCC[N+](C)(C)C.[Cl-].[Cl-]` [C8MeCl], in data set [2], the “Compatibility observation, 100% of Diquat” value was “Cl”; the “Compatibility observation, 10% of Diquat” value is on record as “Cl”; the “Compatibility observation, 20% of Diquat” value is given as “Cl”; the “Compatibility observation, 30% of Diquat” value is on record as “Cl”. Besides, in data set [2], the “Compatibility observation, 40% of Diquat” value was “Cl”; the “Compatibility observation, 50% of Diquat” value is on record as “Cl”; the “Compatibility observation, 60% of Diquat” value is “Cl”; the “Compatibility observation, 70% of Diquat” value is “Cl”. Moreover, in data set [2], the “Compatibility observation, 80% of Diquat” value is given as “Cl” and the “Compatibility observation, 90% of Diquat” value was “Cl”.
`CCCCCCCC[N+](C)(C)CCCN(CCC[N+](C)(C)CCCCCCCC)C(=O)CCCCCCC.[Br-].[Br-]` [C8OcBr]: in data set [2], the “Compatibility observation, 100% of Diquat” value is “Cl”; the “Compatibility observation, 10% of Diquat” value is “Cl”; the “Compatibility observation, 20% of Diquat” value is “Cl”; the “Compatibility observation, 30% of Diquat” value was “Blu”. In data set [2], the “Compatibility observation, 40% of Diquat” value is on record as “Blu”; the “Compatibility observation, 50% of Diquat” value is listed as “Turb”; the “Compatibility observation, 60% of Diquat” value is given as “Turb”; the “Compatibility observation, 70% of Diquat” value is listed as “Turb”. For the same molecule, in data set [2], the “Compatibility observation, 80% of Diquat” value is given as “Cl” and the “Compatibility observation, 90% of Diquat” value is reported as “Cl”.
`CCCCCCCCCC(=O)N(CCC[N+](C)(C)C)CCC[N+](C)(C)C.[Cl-].[Cl-]` [C10MeCl]: in data set [2], the “Compatibility observation, 100% of Diquat” value is “Cl”; the “Compatibility observation, 10% of Diquat” value is “Cl”; the “Compatibility observation, 20% of Diquat” value is on record as “Cl”; the “Compatibility observation, 30% of Diquat” value is given as “Cl”. In addition, in data set [2], the “Compatibility observation, 40% of Diquat” value is given as “Cl”; the “Compatibility observation, 50% of Diquat” value was “Turb”; the “Compatibility observation, 60% of Diquat” value is listed as “Cl”; the “Compatibility observation, 70% of Diquat” value is on record as “Cl”. Besides, in data set [2], the “Compatibility observation, 80% of Diquat” value is “Cl” and the “Compatibility observation, 90% of Diquat” value is “Cl”.
As for `CCCCCCCCCCCC(=O)N(CCC[N+](C)(C)C)CCC[N+](C)(C)C.[Cl-].[Cl-]` [C12MeCl], in data set [2], the “Compatibility observation, 100% of Diquat” value is “Cl”; the “Compatibility observation, 10% of Diquat” value is “Cl”; the “Compatibility observation, 20% of Diquat” value is “Cl”; the “Compatibility observation, 30% of Diquat” value was “Cl”. For the same molecule, in data set [2], the “Compatibility observation, 40% of Diquat” value is on record as “Blu”; the “Compatibility observation, 50% of Diquat” value is reported as “Cl”; the “Compatibility observation, 60% of Diquat” value is “Cl”; the “Compatibility observation, 70% of Diquat” value is “Cl”. Moreover, in data set [2], the “Compatibility observation, 80% of Diquat” value was “Cl” and the “Compatibility observation, 90% of Diquat” value is given as “Cl”.
Consider `CCCCCCCCCCCCCC(=O)N(CCC[N+](C)(C)C)CCC[N+](C)(C)C.[Cl-].[Cl-]` [C14MeCl], for which, in data set [2], the “Compatibility observation, 100% of Diquat” value is given as “Cl”; the “Compatibility observation, 10% of Diquat” value is recorded as “Cl”; the “Compatibility observation, 20% of Diquat” value was “Cl”; the “Compatibility observation, 30% of Diquat” value is “Cl”. Also, in data set [2], the “Compatibility observation, 40% of Diquat” value is given as “Prec”; the “Compatibility observation, 50% of Diquat” value is reported as “Cl”; the “Compatibility observation, 60% of Diquat” value is reported as “Cl”; the “Compatibility observation, 70% of Diquat” value was “Cl”. In data set [2], the “Compatibility observation, 80% of Diquat” value is listed as “Cl” and the “Compatibility observation, 90% of Diquat” value was “Cl”.
For `CCCCCCCCCCCCCCCC(=O)N(CCC[N+](C)(C)C)CCC[N+](C)(C)C.[Cl-].[Cl-]` [C16MeCl], in data set [2], the “Compatibility observation, 100% of Diquat” value is reported as “Cl”; the “Compatibility observation, 10% of Diquat” value is reported as “Cl”; the “Compatibility observation, 20% of Diquat” value is “Cl”; the “Compatibility observation, 30% of Diquat” value is given as “Visc”. Besides, in data set [2], the “Compatibility observation, 40% of Diquat” value was “Prec”; the “Compatibility observation, 50% of Diquat” value is “Cl”; the “Compatibility observation, 60% of Diquat” value is recorded as “Cl”; the “Compatibility observation, 70% of Diquat” value is given as “Cl”. Moreover, in data set [2], the “Compatibility observation, 80% of Diquat” value was “Cl” and the “Compatibility observation, 90% of Diquat” value is “Cl”.
Regarding `CCCCCCCCCCCCCCCCCC(=O)N(CCC[N+](C)(C)C)CCC[N+](C)(C)C.[Cl-].[Cl-]` [C18MeCl], in data set [2], the “Compatibility observation, 100% of Diquat” value is listed as “Cl”; the “Compatibility observation, 10% of Diquat” value is recorded as “Cl”; the “Compatibility observation, 20% of Diquat” value is “Cl”; the “Compatibility observation, 30% of Diquat” value is listed as “Cl”. Besides, in data set [2], the “Compatibility observation, 40% of Diquat” value is given as “Turb”; the “Compatibility observation, 50% of Diquat” value is “Visc”; the “Compatibility observation, 60% of Diquat” value was “Cl”; the “Compatibility observation, 70% of Diquat” value was “Cl”. Besides, in data set [2], the “Compatibility observation, 80% of Diquat” value is “Cl” and the “Compatibility observation, 90% of Diquat” value is reported as “Cl”.
Take `CCCCCCCCCCCCCCCC[N+](C)(C)C.[Br-]` [CTAB, Cetrimonium bromide]: the “Solubility temperatures [° C.] 1 wt %” value in data set [3] was determined as 25 °C.
On the same count and under the same terms, then `CCCCCCCCCCCC[N+](C)(C)C.[Br-]` [DTAB, Dodecyl Trimethyl Ammonium Bromide], with below 0 °C.
Consider `CC(C)N.O=C(O)CNCP(=O)(O)O` [IPA-glyphosate, reference compound], for which, in the data set on Black nightshade (SOLNI), the “Fresh Weight SOLNI” value stood at 6.4 g and the “Relative weight SOLNI (%)” value is listed as 55.2%. For the same molecule, in the data set with winter wheat (cv. Ilias), the “Fresh Weight WHEAT” value came to 12.6 g and the “Relative weight WHEAT (%)” value is 71.7%.
Turning to `CCCCCCCCCCCC(=O)[O-].[Na+]` [NaC12, Sodium Laurate], the “Solubility temperatures [° C.] 1 wt %” value in data set [3] came out at 25 °C.
For the molecule `COc1cc(OC)nc(NC(=O)NS(=O)(=O)c2ncccc2C(=O)N(C)C)n1` [Nicosulfuron], the “log Kow” value in data set [1] (at pH 7) is 0.
Take `CCCCCCCCCCCC(=O)N(CCC[N+](C)(C)C)CCC[N+](C)(C)C.[Cl-].[Cl-]` [R2, R3, R4, R5, R6 = —CH3 R1 = —C11H23]: in the data set with Black nightshade (SOLNI), the “Fresh Weight SOLNI” value was determined as 5.8 g and the “Relative weight SOLNI (%)” value was determined as 50.0%. Further, in the data set on winter wheat (cv. Ilias), the “Fresh Weight WHEAT” value stood at 14.8 g and the “Relative weight WHEAT (%)” value is listed as 83.8%.
Consider `CCCCCCCCCCCCCCCCCC(=O)N(CCC[N+](C)(C)C)CCC[N+](C)(C)C.[Cl-].[Cl-]` [R2, R3, R4, R5, R6 = —CH3 R1 = —C17H35], for which, in the data set with Black nightshade (SOLNI), the “Fresh Weight SOLNI” value is 2.8 g and the “Relative weight SOLNI (%)” value is recorded as 24.0%. In addition, in the data set with winter wheat (cv. Ilias), the “Fresh Weight WHEAT” value is recorded as 14.7 g and the “Relative weight WHEAT (%)” value is on record as 83.5%.

Values taken from patent US9992994B2, “Agricultural and detergent compositions containing a tertiary amide as adjuvant or as surfactant” (Taminco BVBA, priority 2011, dated 2018).
